Source: patent US20240182460A1, “ALLOSTERIC CHROMENONE INHIBITORS OF PHOSPHOINOSITIDE 3-KINASE (PI3K) FOR THE TREATMENT OF DISEASE” (PETRA PHARMA CORPORATION, priority 2022, published 2024)

Columns and labels:
[1] = target: T1, PI3Kα H1047R (Homo sapiens, UniProt P42336, H1047R); assay: PI3Kα H1047R mutant in vitro cell based assay, MDA-MB-453 cells (AlphaLisa SureFire); conditions: MDA-MB-453 cell line, 0% FBS, 3 hours treatment
T1 construct: The MDA-MB-453 (ATCC-HTB-131) cell line (PI3Kα H1047R); host or cells: MDA-MB-453
Excerpt: PI3K-Alpha Kinase (PI3Kα) Activity: Wild-Type PI3Kα, H1047R Mutant PI3Kα, and E545K Mutant PI3Kα In Vitro Cell Based Assays and Determination of IC50 Values for Inhibitors
The MDA-MB-453 (ATCC-HTB-131) cell line (PI3Kα H1047R) and MCF-7 (ATCC-HTB-22) cell line (PI3Kα E545K), MDA-MB-361 (ATCC-HTB-27) cell line (PI3Kα E545K), and SKBR3 (ATCC-HTB-30) cell line (wild type PI3Kα) were obtained from the American Type Culture Collection (Manassas, VA). MDA-MB-453 cells were maintained in Dulbecco's Modified Eagle Media (DMEM, Gibco 12430) supplemented with 10% Fetal Bovine Serum, heat inactivated (FBS HI, Gibco 10082), 1× non-essential amino acids (NEAA, Gibco 11140), 1 mM sodium pyruvate (Gibco 11360) and 1× Anti-Anti (Gibco 15240). MCF-7 cells were maintained in Minimum Essential Media (MEM) (Gibco 11095) supplemented with 10% Fetal Bovine Serum, heat inactivated (FBS HI, Gibco 10082), 1× non-essential amino acids (NEAA, Gibco 11140), 1 mM sodium pyruvate (Gibco 11360), 1× Anti-Anti (Gibco 15240) and 10 μg/mL human insulin (Sigma I 9278). MDA-MB-361 cells were maintained in Dulbecco's Modified Eagle Media (DMEM, Gibco 12430) supplemented with 20% Fetal Bovine Serum, heat inactivated (FBS HI, Gibco 10082), 1× non-essential amino acids (NEAA, Gibco 11140), 1 mM sodium pyruvate (Gibco 11360) and 1× Anti-Anti (Gibco 15240). SKBR3 cells were maintained in McCoy's 5A (Gibco 16600) supplemented with 10% Fetal Bovine Serum, heat inactivated (FBS HI, Gibco 10082), and 1× Anti-Anti (Gibco 15240). Cultures were maintained in a humidified incubator at 37° C. under 5% CO2/95% air.
For compound testing in 0% FBS, MDA-MB-453, MCF-7 and SKBR3 cells were seeded at a density of 1.5×10^4, 1.0×10^4, and 1.0×10^4 cells, respectively, per well in white 384-well plates in 20 μl of Minimum Essential Media (MEM) assay media with 1×NEAA, 1 mM sodium pyruvate, and 1 μg/mL human insulin (Sigma 19278) (Assay Medium); while MDA-MB-361 cells were seeded at a density of 1.5×10^4 per well in white 384-well plates in 20 μl Assay Medium without insulin. After plating, cells were allowed to attach overnight. Compounds dissolved in 10 mM stock solutions in DMSO were serially diluted 1:3 in DMSO to generate a 10-point dilution series and plated using an acoustic liquid handler system (Echo 550 Series Liquid Handler, Labcyte). A 5× intermediate compound dilution plate in MEM with 1×NEAA and 1 mM sodium pyruvate (150 μM starting compound concentration in 1.5% DMSO) was then prepared. Five μl of the intermediate serially diluted compounds were added to the cell plate to final concentrations ranging from […] in 0.3% DMSO. 0.3% DMSO alone was used to establish the maximum (MAX) signal and GDC-0032 at a final concentration of 1 μM was used as a reference compound for the minimum (MIN) signal. After 3 hours treatment, the medium was removed, and the cells were lysed in 10 μL of 1× SureFire Lysis buffer with shaking for 10 minutes at room temperature. The Acceptor Mix (Reaction Buffer 1+Reaction Buffer 2+Activation Buffer+SureFire Ultra Acceptor Beads) was prepared by diluting Activation buffer 25-fold in combined Reaction Buffer 1 and Reaction Buffer 2.
The Acceptor beads were diluted 50-fold in the combined Reaction Buffers. Five μL of Acceptor Mix was added to each well, the plate was sealed and covered with foil and incubated for 1 hour at room temperature. The Donor Mix (dilution buffer+SureFire Ultra Donor Beads) was prepared by diluting Donor Beads 50-fold in dilution buffer. Five μL of the Donor Mix was added to each well and the plate sealed and covered with foil and incubated for 1-2 hours at room temperature in the dark. The plates were read on a Neo2 plate reader instrument from Biotek using standard AlphaLisa settings.
Compounds were tested in duplicate and the % inhibition at each compound concentration was used to generate two dose response curves. One IC50 was generated using average % inhibition at each compound concentration. […]

[2] = target: T2, PI3Kα E545K (Homo sapiens, UniProt P42336, E545K); assay: PI3Kα E545K mutant in vitro cell based assay, MCF-7 cells; conditions: MCF-7 cell line, 0% FBS, 3 hours treatment
Summary of the method: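 MCF-7 cells (PI3Kα E545K) in serum-free MEM with 1 μg/mL insulin were treated 3 h with 10-point 1:3 dilutions in 0.3% DMSO. Lysates were read by SureFire AlphaLisa. IC50 was fitted by 4-parameter logistic to % inhibition relative to DMSO (max) and 1 μM GDC-0032 (min), duplicates averaged.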

[3] = Metabolic stability and intrinsic clearance in human liver microsomes (MICS); type: in vitro ADME; conditions: human, microsomes, pH 7.4
Summary of the method: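 Test compound (1 μM final) incubated at 37° C with liver microsomes (0.5 mg/mL protein) in 100 mM phosphate buffer pH 7.4, with 1 mM NADPH or without cofactor; sampled at 0.5–60 min, quenched with cold acetonitrile. Parent remaining quantified by LC-MS/MS; t1/2 from ln-% remaining slope converted to CLint (μL/min/mg protein).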

[4] = target: T2, PI3Kα E545K; assay: PI3Kα E545K mutant in vitro cell based assay, MDA-MB-361 cells; design: MDA-MB-361 (ATCC-HTB-27) cell line (PI3Kα E545K); host or cells: MDA-MB-361; conditions: MDA-MB-361 cell line, 0% FBS, no insulin, 3 hours treatment
Summary of the method: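 MDA-MB-361 cells (PI3Kα E545K) seeded in serum-free MEM assay medium without insulin, attached overnight, then treated 3 h with compound (10-point 1:3 series, 0.3% DMSO). AlphaLISA SureFire readout of lysates. IC50 by 4-parameter fit, normalized to DMSO (max) and 1 μM GDC-0032 (min).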

T2 sequence (P42336 whole entry E545K): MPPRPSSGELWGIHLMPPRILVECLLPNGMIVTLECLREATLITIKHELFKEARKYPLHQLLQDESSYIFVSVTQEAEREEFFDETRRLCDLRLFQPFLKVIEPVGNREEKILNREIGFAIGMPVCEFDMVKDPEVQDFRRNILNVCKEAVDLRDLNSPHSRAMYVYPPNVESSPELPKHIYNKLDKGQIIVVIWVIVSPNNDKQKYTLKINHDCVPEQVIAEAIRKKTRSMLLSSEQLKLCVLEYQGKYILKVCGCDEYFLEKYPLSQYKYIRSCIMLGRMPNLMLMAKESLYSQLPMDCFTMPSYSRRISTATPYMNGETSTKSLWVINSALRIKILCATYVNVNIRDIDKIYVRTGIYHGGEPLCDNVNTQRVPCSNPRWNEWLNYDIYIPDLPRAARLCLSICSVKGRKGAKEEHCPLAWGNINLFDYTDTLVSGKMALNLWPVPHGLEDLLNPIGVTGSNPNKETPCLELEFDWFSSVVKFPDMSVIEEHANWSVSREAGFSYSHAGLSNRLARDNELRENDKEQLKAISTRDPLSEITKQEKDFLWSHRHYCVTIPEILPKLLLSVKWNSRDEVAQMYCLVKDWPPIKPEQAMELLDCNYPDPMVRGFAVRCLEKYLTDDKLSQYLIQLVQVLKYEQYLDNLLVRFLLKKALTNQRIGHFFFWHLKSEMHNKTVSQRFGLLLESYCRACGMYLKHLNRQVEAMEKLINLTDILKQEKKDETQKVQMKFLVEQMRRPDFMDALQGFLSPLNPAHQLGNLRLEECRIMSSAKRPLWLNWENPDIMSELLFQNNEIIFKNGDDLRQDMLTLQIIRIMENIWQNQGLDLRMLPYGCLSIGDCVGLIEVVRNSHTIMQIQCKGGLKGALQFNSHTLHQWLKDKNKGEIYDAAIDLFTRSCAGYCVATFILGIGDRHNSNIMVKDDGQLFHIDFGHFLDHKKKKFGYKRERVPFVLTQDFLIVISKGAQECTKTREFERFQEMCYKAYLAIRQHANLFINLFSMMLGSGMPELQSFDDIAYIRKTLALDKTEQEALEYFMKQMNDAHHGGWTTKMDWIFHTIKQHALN
T2 sequence (P27986 whole entry partner): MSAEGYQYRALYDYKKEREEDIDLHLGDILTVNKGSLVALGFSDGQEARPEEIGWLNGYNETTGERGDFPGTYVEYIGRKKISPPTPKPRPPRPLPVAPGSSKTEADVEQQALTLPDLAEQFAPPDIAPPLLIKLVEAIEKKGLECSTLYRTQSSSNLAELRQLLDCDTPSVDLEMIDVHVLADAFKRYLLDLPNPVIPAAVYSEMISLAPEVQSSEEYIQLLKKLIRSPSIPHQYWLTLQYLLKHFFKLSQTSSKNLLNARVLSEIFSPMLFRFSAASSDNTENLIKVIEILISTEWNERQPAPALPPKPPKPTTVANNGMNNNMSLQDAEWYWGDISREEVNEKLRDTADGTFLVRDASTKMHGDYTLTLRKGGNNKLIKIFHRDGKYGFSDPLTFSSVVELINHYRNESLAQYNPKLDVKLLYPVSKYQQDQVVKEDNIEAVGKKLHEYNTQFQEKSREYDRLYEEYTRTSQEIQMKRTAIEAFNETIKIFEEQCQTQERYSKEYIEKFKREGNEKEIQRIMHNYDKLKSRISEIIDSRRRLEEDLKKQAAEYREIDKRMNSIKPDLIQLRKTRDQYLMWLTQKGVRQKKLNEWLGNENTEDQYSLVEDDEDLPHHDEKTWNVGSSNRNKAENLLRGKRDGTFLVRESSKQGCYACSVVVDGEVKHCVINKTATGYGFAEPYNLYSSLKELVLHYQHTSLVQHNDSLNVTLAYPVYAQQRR
T1 sequence (P42336 whole entry H1047R): as the sequence (P42336 whole entry E545K) above, with K545E, H1047R counted along it
T1 sequence (P27986 whole entry partner): as the sequence (P27986 whole entry partner) above

IC50 [1] [nM]	IC50 [2] [nM]	microsomal CLint at 1 μM [3] [µL/min/mg]	IC50 [4] [nM]	SMILES
< 100	< 500			Cc1cc(C(C)Oc2ccc(Cl)nc2C)c2oc(-c3cccnc3)c(C)c(=O)c2c1 (single isomer, unassigned; isomer 2) [Example 10, 8-[1-[(6-Chloro-2-methyl-3-pyridyl)oxy]ethyl]-3,6-dimethyl-2-(3-pyridyl)chromen-4-one, Isomer 2]
< 100	< 500			Cc1cc([C@@H](C)Oc2ccc(Cl)nc2C)c2oc(-c3ccccc3)c(C)c(=O)c2c1 [Example 1, 8-[(1R)-1-[(6-Chloro-2-methyl-3-pyridyl)oxy]ethyl]-3,6-dimethyl-2-phenyl-chromen-4-one]
< 100		< 50		Cc1cc([C@@H](C)Oc2ccc(Cl)nc2-c2noc(=O)[nH]2)c2oc(-c3cnc4c(c3)OCO4)c(C)c(=O)c2c1 [Example 39A, 3-[6-Chloro-3-[(1R)-1-[2-([1,3]dioxolo[4,5-b]pyridin-6-yl)-3,6-dimethyl-4-oxo-chromen-8-yl]ethoxy]-2-pyridyl]-4H-1,2,4-oxadiazol-5-one]
< 100		< 50		Cc1cc([C@@H](C)Oc2ccc(Cl)nc2S(N)(=O)=O)c2oc(-c3cccnc3)c(C)c(=O)c2c1 [Example 42A, 6-Chloro-3-[(1R)-1-[3,6-dimethyl-4-oxo-2-(3-pyridyl)chromen-8-yl]ethoxy]pyridine-2-sulfonamide]
< 100	< 500			Cc1cc([C@@H](C)Oc2ccc(Cl)nc2C(N)=O)c2oc(-c3cc(C)c4nn(C)cc4c3)c(C)c(=O)c2c1 [Example 45C, 6-Chloro-3-[(1R)-1-[2-(2,7-dimethylindazol-5-yl)-3,6-dimethyl-4-oxo-chromen-8-yl]ethoxy]pyridine-2-carboxamide]
< 100			< 500	Cc1cc([C@@H](C)Oc2ccc(Cl)nc2C(N)=O)c2oc(-c3ccc4nc(C)oc4c3)c(C)c(=O)c2c1 [Example 53C, 6-Chloro-3-[(1R)-1-[3,6-dimethyl-2-(2-methyl-1,3-benzoxazol-6-yl)-4-oxo-chromen-8-yl]ethoxy]pyridine-2-carboxamide]
< 100			< 500	Cc1cc([C@@H](C)Oc2ccc(Cl)nc2C(N)=O)c2oc(-c3ccc4nc(C)cn4c3)c(C)c(=O)c2c1 [Example 57A, 6-Chloro-3-[(1R)-1-[3,6-dimethyl-2-(2-methylimidazo[1,2-a]pyridin-6-yl)-4-oxo-chromen-8-yl]ethoxy]pyridine-2-carboxamide]
< 100			< 500	Cc1cc([C@@H](C)Oc2ccc(Cl)nc2S(N)(=O)=O)c2oc(-c3cnn(CCO)c3)c(C)c(=O)c2c1 [Example 61A, 6-Chloro-3-[(1R)-1-[2-[1-(2-hydroxyethyl)pyrazol-4-yl]-3,6-dimethyl-4-oxo-chromen-8-yl]ethoxy]pyridine-2-sulfonamide]
< 100			< 500	Cc1cc([C@@H](C)Oc2ccc(Cl)nc2C(N)=O)c2oc(-c3cnc(C)s3)c(C)c(=O)c2c1 [Example 63C, 6-Chloro-3-[(1R)-1-[3,6-dimethyl-2-(2-methylthiazol-5-yl)-4-oxo-chromen-8-yl]ethoxy]pyridine-2-carboxamide]
< 100			< 500	Cc1cc([C@@H](C)Oc2ccc(Cl)nc2C(N)=O)c2oc(-c3cnn4c3OCC4(C)C)c(C)c(=O)c2c1 [Example 65C, 6-Chloro-3-[(1R)-1-[2-(3,3-dimethyl-2H-pyrazolo[5,1-b]oxazol-7-yl)-3,6-dimethyl-4-oxo-chromen-8-yl]ethoxy]pyridine-2-carboxamide]
< 100			< 500	Cc1cc([C@@H](C)Oc2ccc(Cl)nc2C(N)=O)c2oc(-c3ccc4nn(CF)cc4c3)c(C)c(=O)c2c1 [Example 66C, 6-Chloro-3-[(1R)-1-[2-[2-(fluoromethyl)indazol-5-yl]-3,6-dimethyl-4-oxo-chromen-8-yl]ethoxy]pyridine-2-carboxamide]
< 100			< 500	CONC(=O)c1nc(Cl)ccc1O[C@H](C)c1cc(C)cc2c(=O)c(C)c(-c3ccc4nc(C)sc4c3)oc12 [Example 69C, 6-Chloro-3-[(1R)-1-[3,6-dimethyl-2-(2-methyl-1,3-benzothiazol-6-yl)-4-oxo-chromen-8-yl]ethoxy]-N-methoxy-pyridine-2-carboxamide]
< 100			< 500	Cc1cc([C@@H](C)Oc2ccc(Cl)nc2S(N)(=O)=O)c2oc(-c3cnn4c3OCC4)c(C)c(=O)c2c1 [Example 85C, 6-Chloro-3-[(1R)-1-[2-(2,3-dihydropyrazolo[5,1-b]oxazol-7-yl)-3,6-dimethyl-4-oxo-chromen-8-yl]ethoxy]pyridine-2-sulfonamide]
< 100			< 500	Cc1cc([C@@H](C)Oc2ccc(Cl)nc2S(N)(=O)=O)c2oc(-c3cnn(CCS(C)(=O)=O)c3)c(C)c(=O)c2c1 [Example 90C, 6-Chloro-3-[(1R)-1-[3,6-dimethyl-2-[1-(2-methylsulfonylethyl)pyrazol-4-yl]-4-oxo-chromen-8-yl]ethoxy]pyridine-2-sulfonamide]
< 100	< 500			Cc1cc([C@@H](C)Oc2cccnc2S(N)(=O)=O)c2oc(-c3ccccc3)c(C)c(=O)c2c1 [Example 94C, 3-[(1R)-1-(3,6-Dimethyl-4-oxo-2-phenyl-chromen-8-yl)ethoxy]pyridine-2-sulfonamide]
< 100			< 500	Cc1cc([C@@H](C)Oc2ccc(Cl)nc2C(N)=O)c2oc(-c3cnn4c3CCC4)c(C)c(=O)c2c1 [Example 123A, 6-Chloro-3-[(1R)-1-[2-(5,6-dihydro-4H-pyrrolo[2,1-e]pyrazol-3-yl)-3,6-dimethyl-4-oxo-chromen-8-yl]ethoxy]pyridine-2-carboxamide]
